Test results from article PMC6445171 (Journal of Enzyme Inhibition and Medicinal Chemistry, 2017).
In brackets after ≈: the same amount, converted by molar mass. Read-outs that look alike come from different tables or passages of the source.

Columns and labels:
[1] = cited from earlier work
[2] = physchem; details: pH 7.4, aqueous buffer

In the case of `CCn1c(=O)c2c(nc(/C=C/c3ccc(OC)c(OC)c3)n2C)n(CC)c1=O` [Istradefylline], the Solubility ([1]; reference antagonists) is listed as 1.5 µM (≈ 0.577 µg/mL).

For `Nc1ccc2oc(-c3ccco3)nc2c1` [Compound D1, 2-(Furan-2-yl)-1,3-benzoxazol-5-amine], the Solubility [2] was 28 µM (≈ 5.61 µg/mL).

In the case of `COCCOc1ccc(N2CCN(CCn3ncc4c3nc(N)n3nc(-c5ccco5)nc43)CC2)cc1` [Preladenant], the Solubility ([1]; reference antagonist) is listed as 0.02 µM (≈ 0.0101 µg/mL).
